Test [1] concerns the target human alpha1 nicotinic acetylcholine (nACh) receptor (Homo sapiens, UniProt P02708). The test can be described thus: Nicotinic acetylcholine receptor antagonism assay, IONFlux automated patch clamp (Example 203). It is filed as cell-based. The note with it: for IC50: antagonism of ACh-stimulated human alpha1 nAChR current, patch clamp; for Emax at 100 µM: maximum percentage antagonism at maximum concentration tested 100 μM, read-out: Maximum Response. An outline of the steps: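 Cells expressing human α1 nAChR were incubated with a compound dose response (top 10 μM or 100 μM), then stimulated with ACh (10 mM), and peak current was read by automated patch clamp. % inhibition was taken against ACh-alone control, corrected for vehicle and run-down, and fit non-linearly for IC50; runs were averaged.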
(The patch-clamp technique gives a direct electrical read-out from membranes.)

Test [2] concerns CCR2 expressing cells (CD11b+Ly6c+Hi) in peripheral blood. The test can be described thus: In vivo depletion assay, flow cytometry of peripheral blood (Example 201). Also on record: species or system human CCR2 knock-in mice (C57 background). The settings on record: hCCR2 knock-in mice, IV 0.1 mpk compound + 10 mpk anti-cotinine antibody (SEQ ID NO: 13/14), peripheral blood at 48 hr. An outline of the steps: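 Mice dosed with compound formulated in saline/DMSO/PBS, with anti-cotinine antibody (rabbit variable region, mouse IgG2a Fc) where required, pre-incubated 30 min at room temperature. Terminal peripheral blood RBC-lysed, Fc-blocked, stained for CD45, CD3, CD11b, Ly6C, human CCR2 and 7AAD; percent depletion of CD11b+Ly6c+Hi cells determined by flow cytometry.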
Background: In flow cytometry, cells or beads pass a laser one at a time.

Sequence of human alpha1 nicotinic acetylcholine (nACh) receptor (P02708 21-457): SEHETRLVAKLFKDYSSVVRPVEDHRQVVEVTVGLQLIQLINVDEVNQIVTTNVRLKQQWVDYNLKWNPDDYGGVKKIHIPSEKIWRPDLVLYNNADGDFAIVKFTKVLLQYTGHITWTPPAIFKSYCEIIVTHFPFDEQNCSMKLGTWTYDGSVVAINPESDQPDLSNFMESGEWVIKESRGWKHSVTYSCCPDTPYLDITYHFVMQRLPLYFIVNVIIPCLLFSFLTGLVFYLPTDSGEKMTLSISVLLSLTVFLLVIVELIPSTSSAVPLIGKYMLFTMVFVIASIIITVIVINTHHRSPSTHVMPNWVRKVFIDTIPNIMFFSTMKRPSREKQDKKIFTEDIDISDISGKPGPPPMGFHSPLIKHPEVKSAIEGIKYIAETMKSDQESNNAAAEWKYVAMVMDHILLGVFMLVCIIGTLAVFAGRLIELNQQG
Sequence of human alpha1 nicotinic acetylcholine (nACh) receptor (P11230 24-501 partner): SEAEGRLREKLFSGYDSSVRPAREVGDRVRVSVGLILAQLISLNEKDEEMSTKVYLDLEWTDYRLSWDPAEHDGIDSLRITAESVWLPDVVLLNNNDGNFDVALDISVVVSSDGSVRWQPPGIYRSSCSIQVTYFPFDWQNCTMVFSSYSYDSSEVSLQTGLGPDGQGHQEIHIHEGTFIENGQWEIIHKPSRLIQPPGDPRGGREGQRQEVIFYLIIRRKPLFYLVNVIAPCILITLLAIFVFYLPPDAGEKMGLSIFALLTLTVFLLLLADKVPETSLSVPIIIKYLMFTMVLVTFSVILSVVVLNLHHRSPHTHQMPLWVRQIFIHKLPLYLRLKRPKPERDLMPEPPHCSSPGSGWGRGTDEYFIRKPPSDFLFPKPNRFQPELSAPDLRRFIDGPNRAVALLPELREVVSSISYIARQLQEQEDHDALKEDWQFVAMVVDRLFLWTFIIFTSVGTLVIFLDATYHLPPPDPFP
Sequence of human alpha1 nicotinic acetylcholine (nACh) receptor (Q07001 22-517 partner): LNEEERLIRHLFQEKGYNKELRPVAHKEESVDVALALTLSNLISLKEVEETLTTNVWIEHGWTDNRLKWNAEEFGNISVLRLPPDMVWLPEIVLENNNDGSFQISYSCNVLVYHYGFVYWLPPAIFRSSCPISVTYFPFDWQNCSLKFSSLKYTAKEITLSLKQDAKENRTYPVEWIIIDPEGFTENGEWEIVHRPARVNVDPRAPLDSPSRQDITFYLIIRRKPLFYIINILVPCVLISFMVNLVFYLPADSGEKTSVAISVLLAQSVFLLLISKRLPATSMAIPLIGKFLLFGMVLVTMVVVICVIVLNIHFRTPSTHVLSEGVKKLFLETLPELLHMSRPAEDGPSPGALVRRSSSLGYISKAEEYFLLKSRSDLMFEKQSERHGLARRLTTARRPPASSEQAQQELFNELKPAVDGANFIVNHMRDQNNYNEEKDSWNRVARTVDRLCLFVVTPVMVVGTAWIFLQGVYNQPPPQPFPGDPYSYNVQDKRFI

By IC50 is commonly meant the concentration that inhibits the measured activity by half. A lower IC50 goes with higher potency. On to `CC(C)N(C)[C@@H]1CC[C@H](N2CC[C@H](Nc3ncnc4ccc(C(F)(F)F)cc34)C2=O)[C@H](NC(=O)[C@H]2CC[C@@H](NC(=O)CCCO[C@H]3CC[C@H](OCCNC(=O)[C@H]4CC(=O)N(C)[C@@H]4c4cccnc4)CC3)CC2)C1` [Example 5, (2S,3S)-N-(2-(((1R,4S)-4-(4-(((1S,4S)-4-(((1R,2S,5R)-5-(Isopropyl(methyl)amino)-2-((S)-2-oxo-3-((6-(trifluoromethyl)quinazolin-4-yl)amino)pyrrolidin-1-yl)cyclohexyl)carbamoyl)cyclohexyl)amino)-4-oxobutoxy)cyclohexyl)oxy)ethyl)-1-methyl-5-oxo-2-(pyridin-3-yl)pyrrolidine-3-carboxamide], for which, in test [1], the IC50 was at least 100 µM and the Emax at 100 µM stood at 40.5%. In test [2], the “% Depletion of CCR2 expressing cells” value is reported as 91.05%.
In the case of `CC(C)N(C)[C@@H]1CC[C@H](N2CC[C@H](Nc3ncnc4ccc(C(F)(F)F)cc34)C2=O)[C@H](NC(=O)CCOCCOCCNC(=O)CCOCCOCCNC(=O)[C@H]2CC(=O)N(C)[C@@H]2c2cccnc2)C1` [Example 76, (2S,3S)-N-(19-(((1R,2S,5R)-5-(Isopropyl(methyl)amino)-2-((S)-2-oxo-3-((6-(trifluoromethyl)quinazolin-4-yl)amino)pyrrolidin-1-yl)cyclohexyl)amino)-9,19-dioxo-3,6,13,16-tetraoxa-10-azanonadecyl)-1-methyl-5-oxo-2-(pyridin-3-yl)pyrrolidine-3-carboxamide], in test [1], the IC50 came to 32.4 µM and the Emax at 100 µM was determined as 67.7%. In addition, in test [2], the “% Depletion of CCR2 expressing cells” value was 65%.
The corresponding values for `CN1C(=O)C[C@H](C(=O)NCCOCCOCCOCCC(=O)N[C@H]2CC[C@@H](C(=O)N[C@@H]3C[C@H](NC(C)(C)C)CC[C@@H]3N3CC[C@H](Nc4ncnc5ccc(C(F)(F)F)cc45)C3=O)CC2)[C@H]1c1cccnc1` [Example 23, (2S,3S)-N-(2-(2-(2-(3-(((1S,4s)-4-(((1R,2S,5R)-5-(tert-Butylamino)-2-((S)-2-oxo-3-((6-(trifluoromethyl)quinazolin-4-yl)amino)pyrrolidin-1-yl)cyclohexyl)carbamoyl)cyclohexyl)amino)-3-oxopropoxy)ethoxy)ethoxy)ethyl)-1-methyl-5-oxo-2-(pyridin-3-yl)pyrrolidine-3-carboxamide] are 85.2 µM, 50.5% and 90.7%.
For `CC(C)N(C)[C@@H]1CC[C@H](N2CC[C@H](Nc3ncnc4ccc(C(F)(F)F)cc34)C2=O)[C@H](NC(=O)CNC(=O)[C@H]2CC[C@@H](NC(=O)CCOCCOCCNC(=O)[C@H]3CC(=O)N(C)[C@@H]3c3cccnc3)CC2)C1` [Example 137, (2S,3S)-N-(2-(2-(3-(((1S,4s)-4-((2-(((1R,2S,5R)-5-(Isopropyl(methyl)amino)-2-((S)-2-oxo-3-((6-(trifluoromethyl)quinazolin-4-yl)amino)pyrrolidin-1-yl)cyclohexyl)amino)-2-oxoethyl)carbamoyl)cyclohexyl)amino)-3-oxopropoxy)ethoxy)ethyl)-1-methyl-5-oxo-2-(pyridin-3-yl)pyrrolidine-3-carboxamide], in that order: 70 µM, 62% and 89%.
For `CC(C)N(C)[C@@H]1CC[C@H](N2CC[C@H](Nc3ncnc4ccc(C(F)(F)F)cc34)C2=O)[C@H](NC(=O)[C@H]2C[C@@H](NC(=O)CCOCCOCCOCCNC(=O)[C@H]3CC(=O)N(C)[C@@H]3c3cccnc3)C2)C1` [Example 24, (2S,3S)-N-(2-(2-(2-(3-(((1S,3s)-3-(((1R,2S,5R)-5-(Isopropyl(methyl)amino)-2-((S)-2-oxo-3-((6-(trifluoromethyl)quinazolin-4-yl)amino)pyrrolidin-1-yl)cyclohexyl)carbamoyl)cyclobutyl)amino)-3-oxopropoxy)ethoxy)ethoxy)ethyl)-1-methyl-5-oxo-2-(pyridin-3-yl)pyrrolidine-3-carboxamide], in that order: 85.3 µM, 59.5% and 89.47%.
As for `CC(C)N(C)[C@@H]1CC[C@H](N2CC[C@H](Nc3ncnc4ccc(C(F)(F)F)cc34)C2=O)[C@H](NC(=O)CCOCCNC(=O)CCCO[C@H]2CC[C@H](OCCNC(=O)[C@H]3CC(=O)N(C)[C@@H]3c3cccnc3)CC2)C1` [Example 7, (2S,3S)-N-(2-(((1r,4S)-4-(4-((2-(3-(((1R,2S,5R)-5-(Isopropyl(methyl)amino)-2-((S)-2-oxo-3-((6-(trifluoromethyl)quinazolin-4-yl)amino)pyrrolidin-1-yl)cyclohexyl)amino)-3-oxopropoxy)ethyl)amino)-4-oxobutoxy)cyclohexyl)oxy)ethyl)-1-methyl-5-oxo-2-(pyridin-3-yl)pyrrolidine-3-carboxamide], in test [1], 13.7 µM corresponded to half-maximal inhibition (IC50) and the Emax at 100 µM amounted to 95%. Besides, in test [2], the “% Depletion of CCR2 expressing cells” value stood at 47%.
The corresponding values for `CC(C)N(C)[C@@H]1CC[C@H](N2CC[C@H](Nc3ncnc4ccc(C(F)(F)F)cc34)C2=O)[C@H](NC(=O)C2CCC(NC(=O)CCOCCNC(=O)CCOCCNC(=O)[C@H]3CC(=O)N(C)[C@@H]3c3cccnc3)CC2)C1` (stereo partly drawn) [Example 48, (2S,3S)-N-(2-(3-((2-(3-(((1R,4r)-4-(((1R,2S,5R)-5-(Isopropyl(methyl)amino)-2-((S)-2-oxo-3-((6-(trifluoromethyl)quinazolin-4-yl)amino)pyrrolidin-1-yl)cyclohexyl)carbamoyl)cyclohexyl)amino)-3-oxopropoxy)ethyl)amino)-3-oxopropoxy)ethyl)-1-methyl-5-oxo-2-(pyridin-3-yl)pyrrolidine-3-carboxamide] are 31.8 µM, 77% and 89%.
For `CC(C)N(C)[C@@H]1CC[C@H](N2CC[C@H](Nc3ncnc4ccc(C(F)(F)F)cc34)C2=O)[C@H](NC(=O)[C@H]2CC[C@@H](NC(=O)CCOCCNC(=O)CCNC(=O)CCNC(=O)[C@H]3CC(=O)N(C)[C@@H]3c3cccnc3)CC2)C1` [Example 182, (2S,3S)-N-(3-((3-((2-(3-(((1S,4s)-4-(((1R,2S,5R)-5-(Isopropyl(methyl)amino)-2-((S)-2-oxo-3-((6-(trifluoromethyl)quinazolin-4-yl)amino)pyrrolidin-1-yl)cyclohexyl)carbamoyl)cyclohexyl)amino)-3-oxopropoxy)ethyl)amino)-3-oxopropyl)amino)-3-oxopropyl)-1-methyl-5-oxo-2-(pyridin-3-yl)pyrrolidine-3-carboxamide], in that order: 76.4 µM, 61.9% and 97%.
For the molecule `CC(C)N(C)[C@@H]1CC[C@H](N2CC[C@H](Nc3ncnc4ccc(C(F)(F)F)cc34)C2=O)[C@H](NC(=O)CCOCCNC(=O)CCOCCNC(=O)COCCNC(=O)[C@H]2CC(=O)N(C)[C@@H]2c2cccnc2)C1` [Example 105, (2S,3S)-N-(19-(((1R,2S,5R)-5-(Isopropyl(methyl)amino)-2-((S)-2-oxo-3-((6-(trifluoromethyl)quinazolin-4-yl)amino)pyrrolidin-1-yl)cyclohexyl)amino)-5,12,19-trioxo-3,9,16-trioxa-6,13-diazanonadecyl)-1-methyl-5-oxo-2-(pyridin-3-yl)pyrrolidine-3-carboxamide], in test [1], the IC50 was found to be 38.9 µM and the Emax at 100 µM came out at 75.7%. Besides, in test [2], the “% Depletion of CCR2 expressing cells” value turned out to be 95%.

These data come from patent US12521393B2, “Cytotoxicity targeting chimeras for CCR2-expressing cells” (GLAXOSMITHKLINE INTELLECTUAL PROPERTY DEVELOPMENT LIMITED, priority 2021, dated 2026).
